Reference: patent US20240247035A1, “STAPLED ANTIMICROBIAL PEPTIDES (STAMPS) AND USES THEREOF” (Lytica Therapeutics, Inc., priority 2021, published 2024)
Converted amounts (≈) assume the structure as drawn. Bridge positions count the residues as written; N and C are the ends. Square brackets hold non-standard residues; d marks the D form. Peptide text beside a SMILES is read from it. S5 = C=CCCC[C@](C)(N)C(=O)O

Key:
[1] = 48 hours cytotoxicity assay (CellTiter-Glo), liver toxicity; assay type: cell-based; details: human
Method: (§1) Cell culture: RPTEC were maintained in MEM media supplemented with growth factors. HEPG2 cell line was maintained in Eagle's Minimum Essential Medium (EMEM) supplemented with fetal bovine serum to a final concentration of 10%.
48 hours cytotoxicity assay: Cells were plated in a 96-well format, and after 4 hour incubation to allow attachment, serial dilutions of StAMPs from a 5 mg/mL water stock, or vehicle, were then added to the cells in a final volume of 100 μl. After incubating at 37° C. for 48 hours, 100 μl of CellTiter-Glo® reagent was added to the cells, and the plates were incubated 10 minutes at room temperature. Luminescence was then measured on a microplate reader.
(§2) Renal toxicity was measured after 90 minutes of incubation, while liver toxicity was measured after 48 hours of incubation with StAMPs. N/A=not tested.

[2] = 90 minute cytotoxicity assay (LDH release), renal toxicity; assay type: cell-based; details: human
Method: as §1
90 minute cytotoxicity assay: Cells were plated in a 96-well format, and after overnight incubation, media was replaced with fresh media. Serial dilutions of StAMPs from a 5 mg/mL water stock, or vehicle, were added to the cells in a final volume of 100 μl. After incubating at 37° C. for 90 min, 50 μl of cell culture media was transferred to a clear 96-well plate, incubated with 50 μl of lactate dehydrogenase (LDH) assay reagent for 10 min, and absorbance measured at 490 nm on a microplate reader.
as §2

Compound	IC50 at 48 hours [1] [µg/mL]	IC50 at 90 min [2] [µg/mL]
CC[C@H](C)[C@H](NC(=O)[C@H](CCCCN)NC(=O)[C@H](CCCCN)NC(=O)CNC(=O)[C@H](CCCCN)NC(=O)[C@]1(C)CCCC=CCCC[C@](C)(NC(=O)CN)C(=O)N[C@@H](CCCCN)C(=O)N[C@@H](CO)C(=O)N[C@@H](CCCCN)C(=O)N1)C(=O)N[C@@H](CCCCN)C(=O)N[C@@H](CC(N)=O)C(=O)N[C@@H](CC(C)C)C(=O)N[C@@]1(C)CCCC=CCCC[C@@](C)(C(=O)N[C@@H](CCCCN)C(=O)N[C@@H](CC(N)=O)C(=O)N[C@@H](CCC(=O)O)C(N)=O)NC(=O)[C@H](Cc2ccccc2)NC(=O)[C@H](CO)NC(=O)[C@H]([C@@H](C)CC)NC1=O [compound 23] (H-G[S5]KSK[S5]KGKKIKNL[S5]ISF[S5]KNE-NH2; staple 2-6, 15-19)	53 (≈ 20.8 µM)	62 (≈ 24.3 µM)
CC[C@H](C)[C@H](NC(=O)[C@H](CCCCN)NC(=O)[C@H](CCCCN)NC(=O)CNC(=O)[C@H](CCCCN)NC(=O)[C@]1(C)CCCC=CCCC[C@](C)(NC(=O)CN)C(=O)N[C@@H](CCCCN)C(=O)N[C@@H](CO)C(=O)N[C@@H](CCCCN)C(=O)N1)C(=O)N[C@@H](CCCCN)C(=O)N[C@@H](CC(N)=O)C(=O)N[C@@H](CC(C)C)C(=O)N[C@@]1(C)CCCC=CCCC[C@@](C)(C(=O)N[C@@H](CCCCN)C(=O)N[C@@H](CC(N)=O)C(=O)NCC(=O)NCC(=O)NCC(=O)N[C@@H](CCC(=O)O)C(N)=O)NC(=O)[C@H](Cc2ccccc2)NC(=O)[C@H](CO)NC(=O)[C@H]([C@@H](C)CC)NC1=O [compound 24] (H-G[S5]KSK[S5]KGKKIKNL[S5]ISF[S5]KNGGGE-NH2; staple 2-6, 15-19)	16 (≈ 5.89 µM)	112 (≈ 41.2 µM)
CC[C@H](C)[C@H](NC(=O)[C@H](CCCCN)NC(=O)[C@H](CCCCN)NC(=O)CNC(=O)[C@H](CCCCN)NC(=O)[C@]1(C)CCCC=CCCC[C@](C)(NC(=O)[C@@H](N)CCCCN)C(=O)N[C@@H](Cc2ccccc2)C(=O)N[C@@H](CO)C(=O)N[C@@H](CCCCN)C(=O)N1)C(=O)N[C@@H](CCCCN)C(=O)N[C@@H](CC(N)=O)C(=O)N[C@@H](CC(C)C)C(=O)N[C@@]1(C)CCCC=CCCC[C@@](C)(C(=O)N[C@@H](CCCCN)C(=O)NCC(N)=O)NC(=O)CNC(=O)[C@H](CO)NC(=O)[C@H]([C@@H](C)CC)NC1=O [compound 25] (H-K[S5]FSK[S5]KGKKIKNL[S5]ISG[S5]KG-NH2; staple 2-6, 15-19)	49 (≈ 20.8 µM)	109 (≈ 46.2 µM)
CC[C@H](C)[C@H](NC(=O)[C@H](CCCCN)NC(=O)[C@H](CCCCN)NC(=O)CNC(=O)[C@H](CCCCN)NC(=O)[C@]1(C)CCCC=CCCC[C@](C)(NC(=O)CN)C(=O)N[C@@H](Cc2ccccc2)C(=O)N[C@@H](CCCCN)C(=O)N[C@@H](CCCCN)C(=O)N1)C(=O)N[C@@H](CCCCN)C(=O)N[C@@H](CC(N)=O)C(=O)N[C@@H](CC(C)C)C(=O)N[C@@]1(C)CCCC=CCCC[C@@](C)(C(=O)N[C@@H](CCCCN)C(=O)NCC(N)=O)NC(=O)CNC(=O)[C@H](CO)NC(=O)[C@H]([C@@H](C)CC)NC1=O [compound 26] (H-G[S5]FKK[S5]KGKKIKNL[S5]ISG[S5]KG-NH2; staple 2-6, 15-19)	27 (≈ 11.6 µM)	32 (≈ 13.7 µM)
CC[C@H](C)[C@H](NC(=O)[C@H](CCCCN)NC(=O)[C@H](CCCCN)NC(=O)[C@H](CCCCN)NC(=O)[C@H](CCCCN)NC(=O)[C@]1(C)CCCC=CCCC[C@](C)(NC(=O)CN)C(=O)N[C@@H](Cc2ccccc2)C(=O)N[C@@H](CO)C(=O)N[C@@H](CCCCN)C(=O)N1)C(=O)N[C@@H](CCCCN)C(=O)N[C@@H](CC(N)=O)C(=O)N[C@@H](CC(C)C)C(=O)N[C@@]1(C)CCCC=CCCC[C@@](C)(C(=O)N[C@@H](CCCCN)C(=O)NCC(N)=O)NC(=O)CNC(=O)[C@H](CO)NC(=O)[C@H]([C@@H](C)CC)NC1=O [compound 27] (H-G[S5]FSK[S5]KKKKIKNL[S5]ISG[S5]KG-NH2; staple 2-6, 15-19)	35 (≈ 14.8 µM)	42 (≈ 17.8 µM)
CC[C@H](C)[C@H](NC(=O)[C@H](CCCCN)NC(=O)[C@H](CCCCN)NC(=O)CNC(=O)[C@H](CCCCN)NC(=O)[C@]1(C)CCCC=CCCC[C@](C)(NC(=O)CN)C(=O)N[C@@H](Cc2ccccc2)C(=O)N[C@@H](CO)C(=O)N[C@@H](CCCCN)C(=O)N1)C(=O)N[C@@H](CCCCN)C(=O)N[C@@H](CCCCN)C(=O)N[C@@H](CC(C)C)C(=O)N[C@@]1(C)CCCC=CCCC[C@@](C)(C(=O)N[C@@H](CCCCN)C(=O)NCC(N)=O)NC(=O)CNC(=O)[C@H](CO)NC(=O)[C@H]([C@@H](C)CC)NC1=O [compound 29] (H-G[S5]FSK[S5]KGKKIKKL[S5]ISG[S5]KG-NH2; staple 2-6, 15-19)	22 (≈ 9.55 µM)	27 (≈ 11.7 µM)
CC[C@H](C)[C@H](NC(=O)[C@H](CCCCN)NC(=O)[C@H](CCCCN)NC(=O)CNC(=O)[C@H](CCCCN)NC(=O)[C@]1(C)CCCC=CCCC[C@](C)(NC(=O)CN)C(=O)N[C@@H](Cc2ccccc2)C(=O)N[C@@H](CO)C(=O)N[C@@H](CCCCN)C(=O)N1)C(=O)N[C@@H](CCCCN)C(=O)N[C@@H](CC(N)=O)C(=O)N[C@@H](CCCCN)C(=O)N[C@@]1(C)CCCC=CCCC[C@@](C)(C(=O)N[C@@H](CCCCN)C(=O)NCC(N)=O)NC(=O)CNC(=O)[C@H](CO)NC(=O)[C@H]([C@@H](C)CC)NC1=O [compound 30] (H-G[S5]FSK[S5]KGKKIKNK[S5]ISG[S5]KG-NH2; staple 2-6, 15-19)	> 200	> 200
CC[C@H](C)[C@H](NC(=O)[C@H](CCCCN)NC(=O)[C@H](CCCCN)NC(=O)CNC(=O)[C@H](CCCCN)NC(=O)[C@]1(C)CCCC=CCCC[C@](C)(NC(=O)CN)C(=O)N[C@@H](Cc2ccccc2)C(=O)N[C@@H](CO)C(=O)N[C@@H](CCCCN)C(=O)N1)C(=O)N[C@@H](CCCCN)C(=O)N[C@@H](CC(N)=O)C(=O)N[C@@H](CC(C)C)C(=O)N[C@@]1(C)CCCC=CCCC[C@@](C)(C(=O)N[C@@H](CCCCN)C(=O)NCC(N)=O)NC(=O)CNC(=O)[C@H](CO)NC(=O)[C@H](CCCCN)NC1=O [compound 31] (H-G[S5]FSK[S5]KGKKIKNL[S5]KSG[S5]KG-NH2; staple 2-6, 15-19)	86 (≈ 37.3 µM)	116 (≈ 50.3 µM)
CC[C@H](C)[C@H](NC(=O)[C@H](CCCCN)NC(=O)[C@H](CCCCN)NC(=O)CNC(=O)[C@H](CCCCN)NC(=O)[C@]1(C)CCCC=CCCC[C@](C)(NC(=O)CN)C(=O)N[C@@H](Cc2ccccc2)C(=O)N[C@@H](CO)C(=O)N[C@@H](CCCCN)C(=O)N1)C(=O)N[C@@H](CCCCN)C(=O)N[C@@H](CC(N)=O)C(=O)N[C@@H](CC(C)C)C(=O)N[C@@]1(C)CCCC=CCCC[C@@](C)(C(=O)N[C@@H](CCCCN)C(=O)NCC(N)=O)NC(=O)CNC(=O)[C@H](CCCCN)NC(=O)[C@H]([C@@H](C)CC)NC1=O [compound 32] (H-G[S5]FSK[S5]KGKKIKNL[S5]IKG[S5]KG-NH2; staple 2-6, 15-19)	25 (≈ 10.7 µM)	33 (≈ 14.2 µM)
CC[C@H](C)[C@H](NC(=O)[C@H](CCCCN)NC(=O)[C@H](CCCCN)NC(=O)CNC(=O)[C@H](CCCCN)NC(=O)[C@]1(C)CCCC=CCCC[C@](C)(NC(=O)CN)C(=O)N[C@@H](Cc2ccccc2)C(=O)N[C@@H](CO)C(=O)N[C@@H](CCCCN)C(=O)N1)C(=O)N[C@@H](CCCCN)C(=O)N[C@@H](CC(N)=O)C(=O)N[C@@]1(C)CCCC=CCCC[C@@](C)(C(=O)N[C@@H](CC(C)C)C(=O)N[C@@H](CCCCN)C(=O)NCC(N)=O)NC(=O)[C@H](CO)NC(=O)[C@H]([C@@H](C)CC)NC(=O)[C@H](CC(C)C)NC1=O [compound 33] (H-G[S5]FSK[S5]KGKKIKN[S5]LIS[S5]LKG-NH2; staple 2-6, 14-18)	13 (≈ 5.54 µM)	11 (≈ 4.69 µM)
CC[C@H](C)[C@H](NC(=O)[C@H](CCCCN)NC(=O)[C@H](CCCCN)NC(=O)CNC(=O)[C@H](CCCCN)NC(=O)[C@]1(C)CCCC=CCCC[C@](C)(NC(=O)CN)C(=O)N[C@@H](Cc2ccccc2)C(=O)N[C@@H](CO)C(=O)N[C@@H](CCCCN)C(=O)N1)C(=O)N[C@@H](CCCCN)C(=O)N[C@@]1(C)CCCC=CCCC[C@@](C)(C(=O)NCC(=O)N[C@@H](CC(C)C)C(=O)N[C@@H](CCCCN)C(=O)NCC(N)=O)NC(=O)[C@H]([C@@H](C)CC)NC(=O)[C@H](CC(C)C)NC(=O)[C@H](CC(C)C)NC1=O [compound 34] (H-G[S5]FSK[S5]KGKKIK[S5]LLI[S5]GLKG-NH2; staple 2-6, 13-17)	22 (≈ 9.5 µM)	35 (≈ 15.1 µM)
CC[C@H](C)[C@H](NC(=O)[C@]1(C)CCCC=CCCC[C@](C)(NC(=O)[C@H](CCCCN)NC(=O)[C@H](CCCCN)NC(=O)CNC(=O)[C@H](CCCCN)NC(=O)[C@]2(C)CCCC=CCCC[C@](C)(NC(=O)CN)C(=O)N[C@@H](Cc3ccccc3)C(=O)N[C@@H](CO)C(=O)N[C@@H](CCCCN)C(=O)N2)C(=O)N[C@@H](CCCCN)C(=O)N[C@@H](CC(N)=O)C(=O)N[C@@H](CC(C)C)C(=O)N1)C(=O)N[C@@H](CO)C(=O)NCC(=O)N[C@@H](CC(C)C)C(=O)N[C@@H](CCCCN)C(=O)NCC(N)=O [compound 35] (H-G[S5]FSK[S5]KGKK[S5]KNL[S5]ISGLKG-NH2; staple 2-6, 11-15)	23 (≈ 10 µM)	27 (≈ 11.8 µM)
